Source: patent publication US8778932B2, “Dihydro-oxazolobenzodiazepinone compounds, a process for there preparation and pharmaceutical compositions containing them” (Les Laboratoires Servier, priority 2011, dated 2014)

Columns and labels:
[1] = biological target: HEK-293 cells stably expressing the subunit α5 of the human GABAA receptor, and also the subunits beta2 (short) and gamma2 (long) (Homo sapiens (Human), UniProt P18507+P31644+P47870); test: GABAA receptor activity study (membrane potential, FMP marker, FlexStation3); assay type: cell-based; settings: 40 min preincubation, then GABA, read-out: alpha5 IC50
Sequence of HEK-293 cells stably expressing the subunit α5 of the human GABAA receptor, and also the subunits beta2 (short) and gamma2 (long) (Homo sapiens (Human), UniProt P18507+P31644+P47870) (P31644 32-462): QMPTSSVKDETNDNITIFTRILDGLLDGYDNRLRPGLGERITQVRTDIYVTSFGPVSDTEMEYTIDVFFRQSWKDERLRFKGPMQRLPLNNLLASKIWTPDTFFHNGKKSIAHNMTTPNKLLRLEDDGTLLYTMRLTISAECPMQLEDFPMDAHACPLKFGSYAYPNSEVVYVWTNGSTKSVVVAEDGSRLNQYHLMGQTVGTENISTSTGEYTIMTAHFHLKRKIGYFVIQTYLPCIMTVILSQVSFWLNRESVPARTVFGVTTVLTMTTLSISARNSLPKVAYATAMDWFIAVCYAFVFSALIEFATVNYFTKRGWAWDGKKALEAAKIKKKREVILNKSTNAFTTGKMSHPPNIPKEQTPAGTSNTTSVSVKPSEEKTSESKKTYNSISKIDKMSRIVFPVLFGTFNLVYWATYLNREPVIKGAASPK
Sequence of HEK-293 cells stably expressing the subunit α5 of the human GABAA receptor, and also the subunits beta2 (short) and gamma2 (long) (Homo sapiens (Human), UniProt P18507+P31644+P47870) (P47870 25-512 partner): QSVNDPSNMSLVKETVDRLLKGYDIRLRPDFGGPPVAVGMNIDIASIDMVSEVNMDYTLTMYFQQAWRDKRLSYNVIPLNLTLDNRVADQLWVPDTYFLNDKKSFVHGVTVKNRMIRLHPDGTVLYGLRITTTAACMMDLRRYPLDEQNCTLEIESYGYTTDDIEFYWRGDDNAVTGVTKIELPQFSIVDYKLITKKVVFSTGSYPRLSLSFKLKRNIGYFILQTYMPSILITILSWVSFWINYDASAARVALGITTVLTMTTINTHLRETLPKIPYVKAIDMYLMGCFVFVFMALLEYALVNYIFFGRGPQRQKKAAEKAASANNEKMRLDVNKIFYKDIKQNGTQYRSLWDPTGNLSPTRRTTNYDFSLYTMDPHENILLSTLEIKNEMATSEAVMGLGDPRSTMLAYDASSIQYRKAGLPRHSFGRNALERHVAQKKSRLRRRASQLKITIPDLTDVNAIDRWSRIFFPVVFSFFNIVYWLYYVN
Sequence of HEK-293 cells stably expressing the subunit α5 of the human GABAA receptor, and also the subunits beta2 (short) and gamma2 (long) (Homo sapiens (Human), UniProt P18507+P31644+P47870) (P18507 40-475 partner): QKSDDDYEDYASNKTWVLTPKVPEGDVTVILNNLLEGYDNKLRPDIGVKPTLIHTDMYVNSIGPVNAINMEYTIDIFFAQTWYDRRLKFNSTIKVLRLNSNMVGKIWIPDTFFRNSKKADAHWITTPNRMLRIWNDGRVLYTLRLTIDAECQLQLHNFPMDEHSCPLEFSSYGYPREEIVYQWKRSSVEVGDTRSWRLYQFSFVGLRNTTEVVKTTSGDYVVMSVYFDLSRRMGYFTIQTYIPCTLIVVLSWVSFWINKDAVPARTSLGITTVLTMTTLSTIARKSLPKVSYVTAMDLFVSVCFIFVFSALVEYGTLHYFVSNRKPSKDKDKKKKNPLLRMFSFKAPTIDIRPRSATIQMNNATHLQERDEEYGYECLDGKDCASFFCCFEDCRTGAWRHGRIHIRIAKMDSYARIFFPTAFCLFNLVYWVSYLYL
Method: (§1) The compounds are tested on HEK-293 (Human Embryonic Kidney) cells stably expressing the subunit α5 of the human GABAA receptor, and also the subunits beta2 (short) and gamma2 (long). The cells are maintained in the presence of a selection of three antibiotics—neomycin, zeocin and puromycin—in a Dulbecco medium (DMEM) containing 10% (v/v) foetal bovine serum. On the day before the experiment, the cells are transferred to 96-well plates (in a density of 50,000 cells/well). The cells are then preincubated for 40 minutes with the compounds under test and are treated with GABA. The membrane potential is monitored using a blue FMP marker (Molecular Devices), following the instructions of the manufacturer. The responses are recorded for 120 seconds on a FlexStation3 plate reader (Molecular Devices, USA). The IC50 values of the tested compounds are determined by curve adjustment obtained by non-linear regression using SoftMax Pro software (Molecular Devices, USA).

[2] = biological target: HEK-293 cells stably expressing the subunit α5 of the human GABAA receptor, and also the subunits beta2 (short) and gamma2 (long) (Homo sapiens (Human), UniProt P31644); test: as above; assay type: cell-based; settings: 40 min preincubation, then GABA, read-out: alpha5 IC50
Sequence of HEK-293 cells stably expressing the subunit α5 of the human GABAA receptor, and also the subunits beta2 (short) and gamma2 (long) (Homo sapiens (Human), UniProt P31644) (P31644 32-462): as the sequence (P31644 32-462) above
Sequence of HEK-293 cells stably expressing the subunit α5 of the human GABAA receptor, and also the subunits beta2 (short) and gamma2 (long) (Homo sapiens (Human), UniProt P31644) (P47870 25-512 partner): as the sequence (P47870 25-512 partner) above
Sequence of HEK-293 cells stably expressing the subunit α5 of the human GABAA receptor, and also the subunits beta2 (short) and gamma2 (long) (Homo sapiens (Human), UniProt P31644) (P18507 40-475 partner): as the sequence (P18507 40-475 partner) above
Method: as §1

male NMRI mice [3] = test: Occlusion of the middle cerebral artery (MCA) in the mouse; assay type: in vivo; settings: doses of 1, 3 and 10 mg/kg i.p., 30 minutes after MCA occlusion, FIG. 5
Method: Permanent focal cerebral ischaemia is produced by electrocoagulation of the left MCA (according to the method of Welsh F A et al., J. Neurochem. 1987, 49, 846-851). Male NMRI mice are anaesthetised using 2,2,2-tribromoethanol (500 mg/kg i.p., 20 ml/kg). An incision is made in the left temporo-parietal region of the head between the orbit and the ear. The temporal muscle is then incised and folded back to expose the skull. A small trepanation hole is drilled in the outer lateral part of the skull just to the level of the MCA, and the trunk of the MCA is then occluded by electrocoagulation.
The compounds of the invention are administered by the i.p. route 30 minutes after occlusion of the MCA. Two days later, the animals are deeply anaesthetised using sodium pentobarbital (60 mg/kg i.p., 10 ml/kg) perfused through the heart with a 4% 2,3,5-triphenyltetrazolium chloride solution. The animals are finally decapitated, and the brains are extracted and placed for at least 24 hours in a saline solution containing 8% formaldehyde. Measurement of the necrosed surface area is determined using an image analysis system (DigiCell for Windows 4.0).

rats = test: Radial maze test in the rat (ketamine-induced memory deficit); assay type: in vivo; settings: dose-dependent from 0.3 to 3 mg/kg p.o., ketamine 10 mg/kg i.p., FIG. 4
Excerpt: This test is widely used to evaluate working and referential memory in the rodent. The apparatus consists of a small central octagonal platform from which there radiate eight different, equally spaced corridors. At the end of each corridor there is food, which is not visible from the central platform. In the experiment, all the corridors contain a reward and the animal has to visit each of the corridors just once. Each further visit is considered an error.
On the first day of the experiment the rats are deprived of food for 24 hours. Learning starts on the following day. The rats are placed on the central platform of the maze, each of the eight corridors having been provided with food. The animals are free to eat the food in the eight corridors. If a rat has not eaten all of the food within 20 minutes, it is withdrawn from the maze.
The experiments are continued once a day until the animals attain the determined objective, namely obtaining a total number of errors—that is to say, of any further visits to a corridor—of less than 3. These animals are included in the rest of the study. On the last day, the selected rats are treated p.o. with ketamine (10 mg/kg i.p.) co-administered either with a carrier or with a compound of the invention. The tests start 120 minutes after administration. Each test lasts a maximum of 5 minutes.

male NMRI mice [4] = test: Test for recognition of new objects, in the mouse; assay type: in vivo; settings: i.p.
Method: This test measures non-spatial working memory in the rodent. It is based on the natural tendency of the animal to spend more time exploring a new object than a familiar object.
On Day 0 (familiarisation phase), male NMRI mice are placed in a black PVC box (32×45×27 cm) without an object, for 2.5 minutes. On the first day the mice are free to explore two identical objects for 3 minutes (acquisition phase). On the second day one of the objects is replaced by a new object and the duration of exploration is timed for each object over a period of 4 minutes (retention phase). Pretreatment with the compounds of the invention is carried out by the i.p. route on the day of the acquisition phase. The duration of exploration is measured by the TSE System software (TSE System GmbH, Bad Homburg, Germany),

| IC50 [1] | IC50 [2] | Compound | further results |
| --- | --- | --- | --- |
| 430 nM |  | CC1=NN=C(c2ccc3ncccc3c2)c2cc3oc(=O)[nH]c3cc2C1 [Example 5, 8-methyl-5-(6-quinolyl)-1,9-dihydro-2H-[1,3]oxazolo[4,5-h][2,3]-benzodiazepin-2-one] |  |
|  | 130 nM | CC1=NN=C(c2cc3ccccc3s2)c2cc3oc(=O)[nH]c3cc2C1 [Example 6, 5-(1-benzothien-2-yl)-8-methyl-1,9-dihydro-2H-[1,3]oxazolo[4,5-h][2,3]benzodiazepin-2-one] |  |
|  | 250 nM | CC1=NN=C(c2sc3cccc(C(F)(F)F)c3c2Cl)c2cc3oc(=O)[nH]c3cc2C1 [Example 9, 5-[3-chloro-4-(trifluoromethyl)-1-benzothien-2-yl]-8-methyl-1,9-dihydro-2H-[1,3]oxazolo[4,5-h][2,3]benzodiazepin-2-one] |  |
|  | 200 nM | CC1=NN=C(c2cc3c(F)cccc3s2)c2cc3oc(=O)[nH]c3cc2C1 [Example 21, 5-(4-fluoro-1-benzothien-2-yl)-8-methyl-1,9-dihydro-2H-[1,3]oxazolo[4,5-h][2,3]benzodiazepin-2-one] | inhibition of cerebral damage (necrosed surface area) (male NMRI mice [3]): significantly inhibits cerebral damage; reversal of ketamine-induced referential memory deficit (rats): significantly reverses the ketamine-induced referential memory deficit; procognitive effect in the object recognition model (male NMRI mice [4]; doses of 0.01, 0.03 and 0.1 mg/kg, FIG. 1): significant procognitive effect |
|  | 500 nM | CC1=NN=C(c2cc3c(C(F)(F)F)cccc3s2)c2cc3oc(=O)[nH]c3cc2C1 [Example 31, 8-methyl-5-[4-(trifluoromethyl)-1-benzothien-2-yl]-1,9-dihydro-2H-[1,3]oxazolo[4,5-h][2,3]benzodiazepin-2-one] | procognitive effect in the object recognition model (male NMRI mice [4]; dose of 1 mg/kg, FIG. 2): significant procognitive effect |
| 172 nM |  | CC1=NN=C(c2cc3cc(Cl)ccc3s2)c2cc3oc(=O)[nH]c3cc2C1 [Example 32, 5-(5-chloro-1-benzothien-2-yl)-8-methyl-1,9-dihydro-2H-[1,3]-oxazolo[4,5-h][2,3]benzodiazepin-2-one] |  |
|  | 100 nM | CC1=NN=C(c2cc3ccc(F)cc3s2)c2cc3oc(=O)[nH]c3cc2C1 [Example 36, 5-(6-fluoro-1-benzothien-2-yl)-8-methyl-1,9-dihydro-2H-[1,3]oxazolo[4,5-h][2,3]benzodiazepin-2-one] | procognitive effect in the object recognition model (male NMRI mice [4]; dose of 10 mg/kg, FIG. 3): significant precognitive effect |
| 227 nM |  | CC1=NN=C(c2cc3cccc(F)c3s2)c2cc3oc(=O)[nH]c3cc2C1 [Example 40, 5-(7-fluoro-1-benzothien-2-yl)-8-methyl-1,9-dihydro-2H-[1,3]-oxazolo[4,5-h][2,3]benzodiazepin-2-one] |  |
